Test results as given in US9549918B2, “Stabilized tacrolimus composition” (priority 2008, dated 2017).

Experiment: Ability of stabilizing agents to dissolve in the melted PEG/Poloxamer vehicle
Type: physicochemical
Details: 0.5% w/w of substance mixed with PEG/Poloxamer at 80° C.

Row | Compound | Physical state in vehicle | other results
1 | Oc1cccc2cccnc12 [8-hydroxychinoline 0.005%, ½SO4, ½H2O, 8-hydroxychinoline] | Not dissolved | 
2 | N.N.O=C(O)CC(O)(CC(=O)O)C(=O)O [Citric acid, (NH4)2] | Not dissolved | 
3 | N.N.N.O=C(O)CC(O)(CC(=O)O)C(=O)O [Citric acid, (NH4)3] | Not dissolved | 
4 | O=C(O)CC(O)(CC(=O)O)C(=O)O [Citric acid, H2O] | Dissolved | Physical state in vehicle (listed as citric acid): dissolved
5 | O=C([O-])CC(O)(CC(=O)[O-])C(=O)[O-].[Na+].[Na+].[Na+] [Citric acid, Na3] | Not dissolved | 
6 | O=C([O-])CC(O)(CC(=O)O)C(=O)O.[Na+] [Citric acid, Na] | Not dissolved | 
7 | O=C(O)[C@H]1OC(O)[C@H](O)[C@@H](O)[C@@H]1O (stereo partly drawn) [D-Glucoronic acid] | Not dissolved | 
8 | O=C([O-])CN(CCN(CC(=O)[O-])CC(=O)[O-])CC(=O)[O-].[Ca+2].[Na+].[Na+] [EDTA, Ca, Na2] | Not dissolved | 
9 | O=C([O-])CN(CCN(CC(=O)[O-])CC(=O)O)CC(=O)[O-].[Na+].[Na+].[Na+] [EDTA, Na3] | Not dissolved | 
10 | O.O.O=C([O-])CN(CCN(CC(=O)[O-])CC(=O)[O-])CC(=O)[O-].[Na+].[Na+].[Na+].[Na+] [EDTA, Na4, 2H2O] | Not dissolved | 
11 | O=C(O)CN(CCN(CC(=O)O)CC(=O)O)CC(=O)O [Ethylene di-amine tetra acetic acid] | Not dissolved | 
12 | O=C(O)C(=O)O [Oxalic acid, 2H2O] | Dissolved | Physical state in vehicle (listed as oxalic acid): dissolved
13 | O=C([O-])C(=O)[O-].[Ca+2] [Oxalic acid, Ca, xH2O] | Not dissolved | 
14 | N.N.O=C(O)C(O)C(O)C(=O)O (stereo not shown) [Tartaric acid, (NH4)2] | Not dissolved | 
15 | O.O=C([O-])C(O)C(O)C(=O)[O-].O=C([O-])C(O)C(O)C(=O)[O-].[K+].[K+].[K+].[K+] (stereo not shown) [Tartaric acid, K2, ½H2O] | Not dissolved | 
16 | O=C([O-])C(O)C(O)C(=O)O.[K+] (stereo not shown) [Tartaric acid, K] | Not dissolved | 
17 | O=C(O)C(O)C(O)C(=O)O (stereo not shown) [Tartaric acid] | Dissolved | Physical state in vehicle (listed as tartaric acid): dissolved
18 | O.O=C([O-])CN(CCN(CC(=O)[O-])CC(=O)[O-])CCN(CC(=O)[O-])CC(=O)[O-].[Ca+2].[Na+].[Na+].[Na+] [Triethyleneamine pentaacetic acid, Ca, Na3, H2O] | Not dissolved | 
19 | EDTA, NH4, H2O | Not dissolved | 
